Results as given in patent US8987340B2, “Sublimable sustained release delivery system and method of making same” (Oakwood Laboratories, LLC, priority 2005, dated 2015).

Experiment: In vivo sublimation (disappearance) of pellets from subcutaneous implant sites
Parameters: species or system Sprague-Dawley male rats
Settings: subcutaneous implant in neck scruff of rats, explanted pellet mass (FIG. 11)
Protocol: The in-vivo disappearance rates of hexamethylethane and adamantane pellets from subcutaneous implant sites in rats were assessed over a 16-week period. Forty six Sprague-Dawley male rats of similar age and weight were assigned into five treatment groups: hexamethylethane pellet implantation (Group H), adamantane pellet implantation (Group A), PLGA (Boehringer Ingelheim Resomer RG 504H) pellet implantation (Group P), a sham group for which surgery was performed without pellet implantation, and a control (no surgery) group. Pellets were individually weighed, and implanted into the neck scruff of rats. Explantation and reweighing of adamantane pellets was performed at 4 and 8 days, and 2, 4, 8, and 10 weeks; hexamethylethane pellets were explanted and weighed at 4 and 24 hours, and 4, 8, and 14 days.

| Structure (SMILES) | in-vivo sublimation / disappearance period of pellets |
| --- | --- |
| C1C2CC3CC1CC(C2)C3 [adamantane] | over a period of at least two months |
| CC(C)(C)C(C)(C)C [hexamethylethane, 2,2,3,3-Tetramethylbutane] | over a period as short as one week |
